Measured values: US11149028B2, “Methods for treating melanoma using small molecules” (NOVA SOUTHEASTERN UNIVERSITY, priority 2016, dated 2021)
“Also recorded” adds a separate entry of the source.

Experiments:
[1] = test system: LC3-II and beclin-1 in M14 cells; experiment: Western blotting for LC3 and beclin-1, M14; assay type: cell-based, human; details: 24 h, 100 μM
Experimental: 1×10^6 of WM266-4 or M14 cells were seeded in 3 mL of E-MEM or RPMI-1640 medium supplemented with 10% FBS and 1% penicillin/streptomycin in 6 cm plates. […] After washing with TBST, the membranes were treated with chemilumiscent horseradish peroxidase detection reagent (Thermo Scientific, Cat #32209) and exposed to autoradiography film (Denville Scientific, Inc., Metuchen, N.J., USA, cat #E3018). ImageJ software (NIH, Bethesda, Md.) was used to quantify the intensity of proteins bands. The protein bands were normalized against loading controls (β-actin) and expressed as a fold of an untreated control.

[2] = test system: WM266-4 cells; experiment: Annexin V flow cytometry assay; assay type: cell-based, human; details: 100 μM
From the text: After 4, 24 and 48 hrs of compound exposure the adherent and floating cells were combined and stained using the TACS Annexin V-FITC Apoptosis detection kit (Trevigen Inc, Gaithersburg, Md., USA) using manufacturer's protocol. Viable, necrotic, early and late apoptotic cells were counted using Accuri flow cytometer as per the manufacturer instructions.

[3] = test system: calpain in WM266-4 cells; experiment: Calpain activity assay (Calpain-Glo); assay type: cell-based, human; details: 100 μM; 30 min, 4 and 24 h
Experimental: The Calpain-Glo Protease Assay (Promega cat #) was used to measure the calpain enzyme activity in live cells, according to the manufacturer's instructions. 1,250 of WM-266-4 cells were plated in 384-well white TC-treated plates in 5 μL of serum-free EMEM media. The cells were incubated overnight at 37° C., 5% CO2 and 95% relative humidity and 5 μL of test compounds 2155-14, (100 μM), calpain inhibitor III and PD151746 (25 μM) were added alone or in combination and incubated at 37° C., 5% CO2, and 95% relative humidity for 0.5, 4, and 24 h. After incubation, 10 μL, of a freshly prepared dilution of the Calpain-Glo Reagent stock solution (consisting of Suc-LLVY-Glo™ substrate, Calpain-Glo™ buffer, Luciferin Detection Reagent, and CaCl2) was added to cells at above mentioned times and luminescence was recorded with a Neo 2 microplate reader (Biotek Inc). All experiments were performed in triplicate and the values provided are the calculated average of at least three independent experiments.

[4] = test system: hnRNP A2/B1; experiment: DARTS with western blot; assay type: binding, human; details: WM266-4 lysates
From the text: (§1) (FIG. 26A, DARTS workflow). Proteins that bind the lead present as bands of differential intensity on SDS-PAGE and are identified using proteomic techniques. […] Bands from non-treated control and sample treated with 2155-14 were excised, trypsinized, and run on LC/MS/MS. […] In addition to lamin A/C, lamin B2, transketolase (TKT), and cytoskeleton-associated protein 4 (CKAP4) were also identified as possible targets (Table 7 shown in FIG. 27). The exclusive unique peptide counts were too close to make the identification of one over the other with confidence.
(§2) WM266-4 melanoma cell lysates were prepared using a routine protocol with commercially available M-PER buffer supplemented with protease and phosphatase inhibitors. Lysates were split into control and compound test portions, and DMSO and 2155-14 were added to the respective lysate portions and incubated at RT for 1 h to allow for 2155-14 binding to its target(s). Pronase dilutions (1:100. 1:300, 1:1000. 1:3000 and 1:10000, Roche #10165921001) were prepared from 10 mg/mL stock. Lysates were split into 5 aliquots, and pronase dilutions were added to lysate aliquots and incubated at RT for 30 min. […]
(§3) Each sample was analyzed by liquid-chromatography-tandem MS (LC-MS/MS) using an EASY-nLC 1000 system coupled to a Q Exactive mass spectrometer (Thermo Fisher Scientific). […]

[5] = test system: hnRNP H2; experiment: DARTS with western blot; assay type: binding, human; details: WM266-4 lysates
From the text: as §1, §2, §3

In the case of O=C1NC[C@H](Cc2ccccc2)N(C[C@@H]2CCCN2C[C@@H](CC2CCCCC2)N2C[C@H](Cc3ccc(O)cc3)N(CCc3ccccc3)C(=O)C2=O)C1=O [Compound 2155-14, (S)-1((R)-1((S)-2-(((S)-6-benzyl-2,3-dioxopiperazin-1-yl)methyl)pyrrolidin-1-yl)-3-cyclohexylpropan-2-yl)-5-(4-hydroxybenzyl)-4-phenethylpiperazine-2,3-dione], the “LC3-II level, M14” value [1] is reported as “dose dependent increase”, the “beclin-1 level, M14” value [1] is reported as “dose dependent increase” and the “early apoptotic and necrotic cells, of total population” value [2] is reported as “less than 5%”. For the same compound, the “cells undergoing late apoptosis” value ([2]; 24 h) was 18%, the “cells undergoing late apoptosis” value ([2]; 48 h) was 32% and the “cells undergoing late apoptosis in presence of Z-VAD-FMK” value ([2]; 48 h, 10 μM pan-caspase inhibitor) was 29%. The “calpain activity” value [3] was “Calpain activity at 30 min was at the baseline level; also recorded: time-dependent increase of activity at 4 and 24 h”, the “protection of hnRNPA2/B1 from pronase” value [4] was “protects these proteins from pronase proteolysis” and the “protection of hnRNPH2 from pronase” value [5] was “protects these proteins from pronase proteolysis”.
